≈ marks a conversion by molar mass, not a printed value.
Legend:
[1] = tested on: Mycobacterium smegmatis ATCC 607; test: Minimal inhibitory concentration (agar); type: cell-based; settings: Mycolicibacterium smegmatis, ATCC607, 48 h; nutrient agar, pH 7.0, 2 days, 37° C.
Aspergillus niger = test: Minimal inhibitory concentration (agar); type: cell-based; settings: Aspergillus niger, 96 h; potato agar, pH 6.4, 4 days, 27° C.; read-out: MIC
Protocol: (§1) Minimal inhibitory concentration was assayed by agar dilution method
(§2) (potato agar, pH 6.4, 27° C., 4 days).
(§3) P potato agar (pH 6.4, 4 days, 27° C.)

Salmonella typhimurium = test: Minimal inhibitory concentration (agar); type: cell-based; settings: Salmonella enterica, 48 h, nutrient agar, pH 7.0, 2 days, 37° C.
Escherichia coli NIHJ = test: Minimal inhibitory concentration (agar); type: cell-based; settings: 48 h, nutrient agar, pH 7.0, 2 days, 37° C.
[2] = tested on: Klebsiella pneumoniae PCI 602; test: Minimal inhibitory concentration (agar); type: cell-based; settings: PCI602, 48 h, nutrient agar, pH 7.0, 2 days, 37° C.
[3] = tested on: Trichophyton interdigitale; test: Minimal inhibitory concentration (agar); type: cell-based; settings: Trichophyton interdigitale, 96 h; potato agar, pH 6.4, 4 days, 27° C.; read-out: MIC
Candida albicans = test: Minimal inhibitory concentration (agar); type: cell-based; settings: Candida albicans, 96 h, pH 6.4, potato agar, pH 6.4, 4 days, 27° C.; read-out: MIC
Protocol: as §3
(§4) MIC Minimal inhibitory concentration
as §1, §2

[4] = tested on: Staphylococcus aureus FDA 209P (JC-1); test: Minimal inhibitory concentration (agar); type: cell-based; settings: FDA209P, 48 h, nutrient agar, pH 7.0, 2 days, 37° C.
Protocol: (§5) Medium N nutrient agar (pH 7.0, 2 days, 37° C.)
as §4
(§6) N nutrient agar (pH 7.0, 2 days, 37° C.)

Sarcina lutea PCI 1001 = test: Minimal inhibitory concentration (agar); type: cell-based; settings: Micrococcus luteus, PCI1001, 48 h, pH 7, nutrient agar, pH 7.0, 2 days, 37° C.; read-out: MIC
Protocol: as §5, §4, §6

Shigella flexneri = test: Minimal inhibitory concentration (agar); type: cell-based; settings: 48 h, nutrient agar, pH 7.0, 2 days, 37° C.
Protocol: as §5, §4, §6

Pseudomonas aeruginosa = test: Minimal inhibitory concentration (agar); type: cell-based; settings: 48 h, nutrient agar, pH 7.0, 2 days, 37° C.
Protocol: as §5, §4, §6

[5] = tested on: Bacillus subtilis PCI 219; test: Minimal inhibitory concentration (agar); type: cell-based; settings: Bacillus subtilis, PCI219, 48 h, pH 7, nutrient agar, pH 7.0, 2 days, 37° C.; read-out: MIC
Protocol: as §5, §4, §6

[6] = tested on: Escherichia coli NIHJ (JC-2); test: Minimal inhibitory concentration (agar); type: cell-based; settings: 48 h, pH 7, nutrient agar, pH 7.0, 2 days, 37° C.
Protocol: as §5, §4, §6

[7] = tested on: Mycoplasma gallisepticum S-6; test: Minimal inhibitory concentration (PPLO agar); type: cell-based; settings: Mycoplasmoides gallisepticum, S6, 192 h; Eiken PPLO agar, pH 7.8, 8 days, 37° C.; read-out: MIC
Protocol: (§7) H Hokken PPLO agar (pH 7.8, 8 days, 37° C.)
(§8) E Eiken PPLO agar (pH 7.8, 8 days, 37° C.)
as §4

[8] = tested on: Mycoplasma gallisepticum KP-13; test: Minimal inhibitory concentration (PPLO agar); type: cell-based; settings: Mycoplasmoides gallisepticum, KP13, 192 h; Eiken PPLO agar, pH 7.8, 8 days, 37° C.; read-out: MIC
Protocol: as §7, §8, §4

[9] = tested on: Mycoplasma gallisepticum 333P (Spiramycin resistant); test: Minimal inhibitory concentration (PPLO agar); type: cell-based; settings: Mycoplasmoides gallisepticum, 192 h, pH 7.8
Protocol: as §7, §8, §4

Solubility = type: physicochemical
[10] = tested on: mycoplasma, Gram-positive bacteria and tricophyton; test: Antimicrobial activity (in words); type: cell-based
[11] = tested on: parasite of the genus Tricophyton; test: Therapeutic effect on infectious diseases in guinea pigs and cattle; type: in vivo
Protocol: When dermatomycosis of cattle caused by mass infection of Trichophyton verrucosum is treated with nanaomycin A, nanaomycin A is dissolved or suspended in a suitable carrier, for example, olive oil, and is coated on the affected part directly with or without removal of the scales. […] The results obtained by once-coating of nanaomycin A and by twice-coating (the second coating is carried out a week after the first coating) are shown in Tables 2 and 3, respectively.

Mycoplasma pneumoniae = test: Minimal inhibitory concentration (PPLO agar); type: cell-based; settings: 192 h, Eiken PPLO agar, pH 7.8, 8 days, 37° C.
Mycoplasma iners = test: Minimal inhibitory concentration (PPLO agar); type: cell-based; settings: Mycoplasmopsis iners, 192 h; Eiken PPLO agar, pH 7.8, 8 days, 37° C.
Protocol: as §7, §4, §8

Mycoplasma gallinarum = test: Minimal inhibitory concentration (PPLO agar); type: cell-based; settings: Mycoplasmopsis gallinarum, 192 h, Eiken PPLO agar, pH 7.8, 8 days, 37° C.
Protocol: as §7, §4, §8

Sclerotinia cinerea = test: Minimal inhibitory concentration (agar); type: cell-based; settings: 96 h, potato agar, pH 6.4, 4 days, 27° C.
Protocol: | P potato agar (pH 6.4, 4 days, 27° C.)

[12] = tested on: Staphylococcus aureus FDA 209P; test: Minimal inhibitory concentration (agar); type: cell-based; settings: FDA209P, 48 h, nutrient agar, pH 7.0, 2 days, 37° C.
Saccharomyces sake = test: Minimal inhibitory concentration (agar); type: cell-based; settings: Saccharomyces, 96 h; potato agar, pH 6.4, 4 days, 27° C.; read-out: MIC
Gram-positive bacteria = test: Antibacterial activity (in words); type: cell-based
mycoplasmas = test: Antimycoplasma activity (in words); type: cell-based
fungi = test: Antifungal activity (in words); type: cell-based

## CC1OC(CC(N)=O)CC2=C1C(=O)c1c(O)cccc1C2=O (stereo not drawn) [Nanaomycin C, nanaomycin C]
[1]
  MIC: 50 µg/mL (≈ 166 µM)
Aspergillus niger
  MIC: > 100 µg/mL
Salmonella typhimurium
  MIC: > 100 µg/mL
Escherichia coli NIHJ
  MIC: 100 µg/mL (≈ 332 µM)
[2]
  MIC: > 100 µg/mL
[3]
  MIC: 100 µg/mL (≈ 332 µM)
Candida albicans
  MIC: > 100 µg/mL
[4]
  MIC: 3.1 µg/mL (≈ 10.3 µM)
Sarcina lutea PCI 1001
  MIC: 25 µg/mL (≈ 83 µM)
Shigella flexneri
  MIC: > 100 µg/mL
Pseudomonas aeruginosa
  MIC: > 100 µg/mL
[5]
  MIC: 6.3 µg/mL (≈ 20.9 µM)
[6]
  MIC: > 100 µg/mL
[7]
  MIC: 6.3 µg/mL (≈ 20.9 µM)
[8]
  MIC: 12.5 µg/mL (≈ 41.5 µM)
[9]
  MIC: 3.1 µg/mL (≈ 10.3 µM)
Solubility; methanol, ethanol, ethylacetate, chloroform, acetone
  Solubility in methanol, ethanol, ethylacetate, chloroform and acetone: Soluble
Solubility; n-hexane, petroleum ether
  Solubility in n-hexane and petroleum ether: Insoluble
Solubility; water
  Solubility in water: Insoluble
[10]
  antimicrobial activity: inhibits mainly Gram-positive bacteria and mycoplasmas
[11]
  therapeutic effect on Trichophyton infectious diseases: poor therapeutic effect
Mycoplasma pneumoniae
  MIC: 6.3 µg/mL (≈ 20.9 µM)
Mycoplasma iners
  MIC: 50 µg/mL (≈ 166 µM)
Mycoplasma gallinarum
  MIC: 12.5 µg/mL (≈ 41.5 µM)
Sclerotinia cinerea
  MIC: 100 µg/mL (≈ 332 µM)
[12]
  MIC: 6.3 µg/mL (≈ 20.9 µM)
Saccharomyces sake
  MIC: > 100 µg/mL
Gram-positive bacteria
  activity against Gram-positive bacteria: as strong activity against Gram-positive bacteria as nanaomycin A
mycoplasmas
  activity against mycoplasma(s): a weaker activity against fungi and mycoplasmas than nanaomycin A
fungi
  activity against fungi: a weaker activity against fungi and mycoplasmas than nanaomycin A
